Reference: patent publication US20250296955A1, “PIN1 TARGETING COMPOUNDS AND DEGRADERS AND METHODS THEREOF” (The Regents of the University of California, priority 2024, published 2025)
Where a SMILES comes first, the peptide text is derived from it. [ ]: non-standard residue; d: D form. The star is where a group is joined. Trp(5-OMe) = COc1ccc2[nH]cc(C[C@H](N)C(=O)O)c2c1; Pip = O=C(O)[C@@H]1CCCCN1; ClAc = O=C(CCl)*

Key:
[1] = target: T1, Pin1 (Homo sapiens, UniProt Q13526); assay: Pin1 degradation in MIA PaCa-2 cells (western blot); type: cell-based; details: after 24 h (FIG. 14C)
T1 sequence (Q13526 whole entry): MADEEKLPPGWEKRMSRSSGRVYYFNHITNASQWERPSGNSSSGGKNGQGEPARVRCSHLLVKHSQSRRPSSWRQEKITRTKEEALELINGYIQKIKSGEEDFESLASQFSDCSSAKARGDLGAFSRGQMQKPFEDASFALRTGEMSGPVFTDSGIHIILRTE
Method: BxPC3, MIA PaCa-2, PANC-1, MDA-MB-231, and PC3 were obtained from the American Type Culture Collection (ATCC) and A549 NucLight Red cells were purchased from Essen Bioscience. BxPC3 and PC3 cells were cultured in RPMI (Corning) while PANC-1 cells were cultured in DMEM (Corning). MIA PaCa-2 cells were also cultured in DMEM, but with the addition of 2.5% horse serum. A549 NucLight cells were cultured in a Ham's F-12 nutriend mixture with GlutaMAX-1 (Gibco). All of the culture media were supplemented with 10% FBS. MDA-MB-231 cells were nuclear-labeled red (MDA-MB-231 NucLight Red) with the IncuCyte NucLight lentivirus reagent (Essen Bioscience) according to the manufacturer's protocol and were cultured in DMEM supplemented with 10% FBS and 1 μg/mL puromycin. Cells were all maintained at 37° C. in a humidified incubator with 5% CO2.
At the end of the treatments, cells were lysed with a lysis buffer containing 20 mM Tris, pH 7.4, 120 mM NaCl, 1% Triton X-100, 0.5% sodium deoxycholate, 0.1% SDS, 1% IGEPAL, 5 mM EDTA, protease inhibitor cocktail and PhosSTOP (Sigma-Aldrich). Lysates were then centrifuged at 16,000×g for 20 min at 4° C. and supernatants were collected. Protein concentrations were determined using the Pierce BCA Protein Assay Kit (ThermoFisher Scientific) according to the manufacturer's instruction. […]

[2] = target: T1, Pin1; assay: Denaturation thermal shift assay (SYPRO Orange); type: binding; set-up: human Pin1 (residues 1-163); made in house; host or cells: E. coli BL21 (DE3) gold pLysS; details: Table 3; single transition; ± SE of four replicates
Description: (§1) Important to the success of structure activity relations studies, robust biochemical, biophysical, and cell-based assays were implemented that enabled rapid and iterative evaluations of test Pin1 targeting agents. First, the DELFIA (Dissociation-enhanced lanthanide fluorescent immunoassay) assay platform was used to derive a robust heterogeneous assay to monitor the ability of test agents to displace the binding between Pin1 and the D-Peptide (Table 1), which was obtained in a biotinylated form (FIG. 10). […] Second, for an orthogonal biophysical assay denaturation thermal shift measurements were used. Pin1 was incubated with vehicle control (buffer with 1% DMSO), or test agents at protein: ligand ratio of 1:2 (20 μM protein-40 μM compound) for 10 min at 10° C. in the presence of the fluorescent dye SYPRO Orange. The samples were gradually exposed to increasing temperature (linear gradient from 10° C. to 95° C.), causing the protein to unfold. This unfolding allowed the fluorescent dye to bind to the protein's exposed hydrophobic residues, resulting in an increase in fluorescence. The thermal shift assay measures the protein's melting temperature (Tm), which is the temperature at which the protein denatures by 50%. Ligands can affect a protein target to thermal denaturation, which could manifest in a positive or negative shift in the protein denaturation temperature (ΔTm) (Bai N, Roder H, Dickson A, & Karanicolas J (2019) Scientific Reports 9; and Kranz J K & Schalk-Hihi C (2011) Fragment-Based Drug Design: Tools, Practical Approaches, and Examples 493:277-298). Using these two assays, a series of commercially available Pin1 inhibitors were profiled (Table 1). The non-covalent agent D-peptide resulted only moderately active, with an IC50 value of ˜3 μM that closely resembled the dissociation constant for this agent determined via isothermal titration calorimetry, and the ˜ 3 μM IC50 value as reported by a fluorescence polarization assay (Pinch B J, et al. (2020) Nat Chem Biol 16(9):979-987). […] (Table 1) was observed.
Thermal shift assays for Pin1 alone and in the presence of the inhibitors were obtained with a BioRad CFX Connect Real-Time PCR Detection System. Each data point was collected in quadruplicate. Each sample was prepared using buffer 50 mM Phosphate pH 7.5, 150 mM NaCl, 1% DMSO. Protein: ligand ratio used was 1:2 (20 μM protein-40 μM compound), and SYPRO Orange was used. Incubation of the Pin1 protein with the compounds was performed at 10° C. for 10 min. Samples were then heated from 10 to 95° C. with heating increments of 0.05° C., over 30 min. Fluorescence intensity was measured within the excitation/emission ranges 470-505/540-700 nm.

[3] = target: T1, Pin1; assay: DELFIA displacement assay (displacement of biotinylated D-peptide from 6His-Pin1); type: binding; set-up: human Pin1 (residues 1-163); made in house; host or cells: E. coli BL21 (DE3) gold pLysS; details: Table 3; ± SD from duplicates
Description: as §1
For the reported covalent agents such as sulfopin (Dubiella C, et al. (2021) Nat Chem Biol 17(9):954-963), BJP-07-017-3 (Pinch B J, et al. (2020) Nat Chem Biol 16(9):979-987), or KPT-6566 (Campaner E, et al. (2017) Nat Commun 8:15772), a 6-h pre-incubation period was included in the DELFIA assay to allow the covalent reaction to take place. For those agents, IC50 values that fell in the low nanomolar range were observed, consistent with what was reported previously for those compounds. […] To make those determinations in a broader panel of cancer cell lines three pancreatic cancer cell lines, BxPC3, MIA-PaCa-2, and PANC-1, the breast cancer cell line MDA-MB-231, the prostate cancer cell line PC3, and the non-small cell lung cancer cell line A549 were chosen. Each cell line represents various states of KRAS activating mutations (for example BxPC3 is wt-KRAS, while MIAPaCa2 carries the KRAS(G12C) mutation, and the PANC-1 the KRAS(G12D) (Miquel M, Zhang S, & Pilarsky C (2021) Front Cell Dev Biol 9:748631), A549 is KRAS(G12S) (Wang H, et al. (2019) EBioMedicine 49:106-117), MDA-MB-231 is KRAS(G13D) (Kim R K, et al. (2015) Exp Mol Med 47(1):e137), PC3 is wt-KRAS (Bouali S, et al. (2009) Oncol Rep 21(3):731-735). Pin1 protein levels in these cell lines were established using a specific Pin1 antibody in western blot analyses (FIG. 1A). The data confirmed that all these selected human cancer cell lines expressed a significant level of Pin1 (FIG. 1A).
Each well of 96-well streptavidin-coated plates (PerkinElmer) was incubated with 100 μL of 200 nM biotinylated D-peptide for 2 h and washed 3 times with a wash solution (PerkinElmer). Subsequently, a mixture containing Pin1, and a serial dilution of the test compounds were pre-incubated for 6 h. Eu-N1-labeled anti-6x-His antibody (PerkinElmer, 1:2000) was then added to this mixture and further incubated in the biotinylated D-peptide-bound plates for another 2 h. […]

## COc1ccc2[nH]cc(C[C@H](NC(=O)[C@@H]3CCCCN3C(=O)[C@H](Cc3ccccc3)NC(=O)CCl)C(N)=O)c2c1 [158F10] (ClAc-Phe-[Pip]-[Trp(5-OMe)]-NH2)
[1]
  degradation of Pin1 (western blot): degradation of Pin1
[2]
  ΔTm (° C.): −10.16 ± 0.07 °C
[3]
  IC50: 126 ± 5 nM
